Article PMC4977465, “Repositioning organohalogen drugs: a case study for identification of potent B-Raf V600E inhibitors via docking and bioassay” (Scientific Reports, 2016)
Read-outs that look alike come from different tables or passages of the source. Values belong to the compound of their own block, whether it stands above or below them.

Key:
Assay type in all cases: biochemical
[1] = biological target: B-Raf V600E (Homo sapiens, UniProt P15056, V600E); assay: ELISA-based assay of inhibitory activity against B-Raf V600E (MEK to p-MEK); settings: for inhibition at 10 µM: read-out: Inhibition Rate (at 10 μM)
Sequence of B-Raf V600E (P15056 whole entry V600E): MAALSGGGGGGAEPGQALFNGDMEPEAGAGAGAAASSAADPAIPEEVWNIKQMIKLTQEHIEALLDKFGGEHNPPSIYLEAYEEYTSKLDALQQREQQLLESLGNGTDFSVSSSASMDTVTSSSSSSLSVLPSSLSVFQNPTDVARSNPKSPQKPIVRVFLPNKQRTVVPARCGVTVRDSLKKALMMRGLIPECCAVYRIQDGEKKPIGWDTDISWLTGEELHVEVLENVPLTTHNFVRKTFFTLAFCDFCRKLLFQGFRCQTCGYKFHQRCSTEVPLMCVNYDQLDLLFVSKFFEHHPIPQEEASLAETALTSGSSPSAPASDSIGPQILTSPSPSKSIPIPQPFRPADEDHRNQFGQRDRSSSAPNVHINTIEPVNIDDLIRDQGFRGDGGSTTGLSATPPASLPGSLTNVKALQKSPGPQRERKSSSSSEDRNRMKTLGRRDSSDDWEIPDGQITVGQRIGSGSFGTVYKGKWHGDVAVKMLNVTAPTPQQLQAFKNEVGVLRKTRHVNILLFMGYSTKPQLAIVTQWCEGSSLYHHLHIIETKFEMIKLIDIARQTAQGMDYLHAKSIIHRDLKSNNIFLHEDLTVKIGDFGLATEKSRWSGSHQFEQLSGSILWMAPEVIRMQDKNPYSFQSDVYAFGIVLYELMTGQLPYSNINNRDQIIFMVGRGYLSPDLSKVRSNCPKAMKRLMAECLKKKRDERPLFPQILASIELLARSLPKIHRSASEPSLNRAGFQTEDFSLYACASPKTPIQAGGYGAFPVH

[2] = biological target: wild type B-Raf (Homo sapiens, UniProt P15056); assay: ELISA-based assay, wild type B-Raf
Sequence of wild type B-Raf (P15056 whole entry): as the sequence (P15056 whole entry V600E) above, with E600V counted along it

[3] = biological target: T1, B-Raf S602A (Homo sapiens, UniProt P15056, S602A); assay: ELISA-based assay, single point mutant B-Raf S602A
T1 construct: B-RAFT508A and B-RAFS602A, residues 433–726; made in house; host or cells: Sf9 insect cells (pFastBac Dual)
T1 sequence (P15056 433-726 S602A): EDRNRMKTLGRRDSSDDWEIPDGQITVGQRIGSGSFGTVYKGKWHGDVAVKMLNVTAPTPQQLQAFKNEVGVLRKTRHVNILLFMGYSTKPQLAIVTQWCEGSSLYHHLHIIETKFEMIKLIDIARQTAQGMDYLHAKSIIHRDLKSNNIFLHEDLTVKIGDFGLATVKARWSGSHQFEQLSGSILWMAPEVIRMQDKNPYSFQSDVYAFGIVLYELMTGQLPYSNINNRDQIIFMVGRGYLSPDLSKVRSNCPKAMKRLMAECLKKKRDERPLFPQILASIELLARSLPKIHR
Text: (§1) The mutant sequence of human BRAF kinase domain (B-RAFT508A and B-RAFS602A, residues 433–726) was inserted into the plasmid of pFastBacTM Dual. Then the recombinant plasmid was transported into the sf9 cells. Mutant protein was expressed and purified respectively.

[4] = biological target: T2, B-Raf T508A (Homo sapiens, UniProt P15056, T508A); assay: ELISA-based assay, single point mutant B-Raf T508A
T2 construct: B-RAFT508A and B-RAFS602A, residues 433–726; made in house; host or cells: Sf9 insect cells (pFastBac Dual)
T2 sequence (P15056 433-726 T508A): as the sequence (P15056 433-726 S602A) above, with T76A, A170S counted along it
Text: as §1

inhibition at 10 µM ([1]; B-Raf V600E, 10 μM): 82.5%
Compound: CCCS(=O)(=O)Nc1ccc(F)c(C(=O)c2c[nH]c3ncc(Cl)cc23)c1F [PLX4720]

Compound: Cc1cc(C(C#N)c2ccc(Cl)cc2)c(Cl)cc1NC(=O)c1cc(I)cc(I)c1O (centres unmarked) [closantel]
IC50 ([2]; wild type B-Raf, read-out: IC50 B-RAF WT): 1890 nM
IC50 ([3]; B-Raf S602A mutant, read-out: IC50 B-RAF S602A): 6.35 µM
IC50 ([1]; B-Raf V600E, read-out: IC50 B-RAF V600E): 1900 nM
inhibition at 10 µM [1]: 83.9%
IC50 ([4]; B-Raf T508A mutant, read-out: IC50 B-RAF T508A): 5.97 µM

Compound: CC1(C)C(C=C(Cl)Cl)C1C(=O)OC(C#N)c1cccc(Oc2ccccc2)c1 (centres unmarked) [cypermethrin]
activity against B-Raf V600E (in words) ([1]; ELISA-based assay, 10 μM): inactive
inhibition at 10 µM [1]: 17.6%

Compound: O=C(Nc1ccc(Oc2ccc(Cl)cc2)c(Cl)c1)c1cc(I)cc(I)c1O [rafoxanide]
IC50 [2]: 1940 nM
IC50 [3]: 11.4 µM
IC50 [1]: 70 nM
inhibition at 10 µM [1]: 73.2%
IC50 [4]: 15.7 µM

inhibition at 10 µM ([1]; B-Raf V600E, 10 μM): 82.9%
Compound: CCCS(=O)(=O)Nc1ccc(F)c(C(=O)c2c[nH]c3ncc(-c4ccc(Cl)cc4)cc23)c1F [vemurafenib]
